Experimental data as given in ChEMBL document CHEMBL1201862, “PubChem BioAssay data set” (2004).
Activity calls are given as the source filed them.

What was measured:
Leucine aminopeptidase = molecular target: T1, Leucine aminopeptidase (Plasmodium falciparum 3D7, UniProt Q8IL11); assay: P. falciparum M17LAP inhibitors, primary screen, biochemical, fluorogenic H-Leu-NHMec substrate, 1536-well (AID 1619); assay type: functional
T1 sequence (Q8IL11 whole entry): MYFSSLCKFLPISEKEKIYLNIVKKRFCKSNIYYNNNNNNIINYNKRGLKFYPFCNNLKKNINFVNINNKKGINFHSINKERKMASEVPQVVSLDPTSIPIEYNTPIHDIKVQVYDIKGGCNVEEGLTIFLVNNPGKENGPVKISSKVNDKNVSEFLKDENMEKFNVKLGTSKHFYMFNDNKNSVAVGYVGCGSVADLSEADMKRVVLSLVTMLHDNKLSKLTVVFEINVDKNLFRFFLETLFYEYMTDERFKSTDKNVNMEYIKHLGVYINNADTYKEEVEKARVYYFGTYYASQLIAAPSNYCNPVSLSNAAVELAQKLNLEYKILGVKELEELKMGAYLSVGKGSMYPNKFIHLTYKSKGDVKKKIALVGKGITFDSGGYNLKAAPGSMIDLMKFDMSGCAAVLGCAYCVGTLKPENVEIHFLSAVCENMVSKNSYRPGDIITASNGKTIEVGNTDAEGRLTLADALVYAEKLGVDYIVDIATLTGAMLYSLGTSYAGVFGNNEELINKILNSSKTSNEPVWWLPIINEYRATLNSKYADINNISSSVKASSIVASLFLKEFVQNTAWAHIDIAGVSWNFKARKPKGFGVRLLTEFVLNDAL

Aspartyl aminopeptidase = molecular target: T2, Aspartyl aminopeptidase (Plasmodium falciparum 3D7, UniProt Q8I2J3); assay: Counterscreen for inhibitors of M1 and M17 aminopeptidases: QFRET-based biochemical high throughput dose response assay for inhibitors of the Plasmodium falciparum M18 Aspartyl Aminopeptidase (PFM18AAP). [Related PubChem assays: 1619 (Screening assay (M17LAP inhibitors).), 1445 (Screening assay (M1AAP inhibitors).)]
T2 sequence (Q8I2J3 whole entry): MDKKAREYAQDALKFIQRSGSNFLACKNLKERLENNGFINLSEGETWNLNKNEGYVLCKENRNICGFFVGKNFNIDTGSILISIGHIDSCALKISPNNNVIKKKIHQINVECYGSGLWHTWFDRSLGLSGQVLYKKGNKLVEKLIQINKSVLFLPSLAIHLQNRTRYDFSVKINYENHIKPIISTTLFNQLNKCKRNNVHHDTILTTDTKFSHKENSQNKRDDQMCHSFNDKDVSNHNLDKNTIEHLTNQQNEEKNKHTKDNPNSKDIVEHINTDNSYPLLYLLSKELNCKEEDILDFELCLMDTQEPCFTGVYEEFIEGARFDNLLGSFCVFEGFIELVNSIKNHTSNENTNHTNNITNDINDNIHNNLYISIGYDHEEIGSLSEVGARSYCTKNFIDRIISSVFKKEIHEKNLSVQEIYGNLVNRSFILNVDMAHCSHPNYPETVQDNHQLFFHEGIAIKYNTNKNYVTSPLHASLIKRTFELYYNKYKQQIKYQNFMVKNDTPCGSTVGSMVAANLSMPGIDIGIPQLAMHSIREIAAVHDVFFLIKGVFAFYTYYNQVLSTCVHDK

Procathepsin L = Procathepsin L (Homo sapiens, UniProt P07711); assay: CTSL1 protease inhibition – biochemical, QFRET, 1536-well, counter-screen for M1/M17 aminopeptidase inhibitor project, dose response (AID 2214)
[1] = molecular target: T3, Replicative DNA helicase DnaB (Mycobacterium tuberculosis, UniProt P9WMR3); assay: DnaB intein splicing inhibitors, dose response, biochemical, cell-free fluorescence (AID 449749); assay type: functional
T3 sequence (P9WMR3 whole entry): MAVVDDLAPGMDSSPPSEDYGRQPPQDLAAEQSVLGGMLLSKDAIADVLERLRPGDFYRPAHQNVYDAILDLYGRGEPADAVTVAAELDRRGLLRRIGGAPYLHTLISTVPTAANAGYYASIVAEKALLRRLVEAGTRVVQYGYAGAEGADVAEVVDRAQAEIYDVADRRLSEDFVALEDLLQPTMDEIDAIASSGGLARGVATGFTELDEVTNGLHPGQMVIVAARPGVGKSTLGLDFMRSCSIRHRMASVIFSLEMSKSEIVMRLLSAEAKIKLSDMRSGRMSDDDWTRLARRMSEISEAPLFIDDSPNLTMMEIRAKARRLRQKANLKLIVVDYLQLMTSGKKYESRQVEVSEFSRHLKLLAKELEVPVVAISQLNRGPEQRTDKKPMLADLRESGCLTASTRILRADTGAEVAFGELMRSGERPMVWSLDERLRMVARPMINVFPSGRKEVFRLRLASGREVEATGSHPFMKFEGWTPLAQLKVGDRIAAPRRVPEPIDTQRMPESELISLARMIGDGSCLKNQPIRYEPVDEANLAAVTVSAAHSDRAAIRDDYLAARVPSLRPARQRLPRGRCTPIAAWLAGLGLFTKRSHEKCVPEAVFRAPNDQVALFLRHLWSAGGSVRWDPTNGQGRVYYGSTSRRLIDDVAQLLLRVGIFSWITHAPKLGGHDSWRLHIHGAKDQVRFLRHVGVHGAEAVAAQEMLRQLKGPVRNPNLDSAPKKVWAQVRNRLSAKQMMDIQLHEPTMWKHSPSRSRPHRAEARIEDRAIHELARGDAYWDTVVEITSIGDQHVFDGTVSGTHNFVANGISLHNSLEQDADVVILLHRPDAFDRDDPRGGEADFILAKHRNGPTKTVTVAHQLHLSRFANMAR

Protein RecA = molecular target: T4, Protein RecA (Mycobacterium tuberculosis, UniProt P9WHJ3); assay: Fluorescence Cell-Free Homogeneous Dose Retest to Identify Inhibitors of RecA-Intein Splicing Activity. [Related pubchem assays (depositor defined):AID2097, AID2223, AID489010, AID492950]; assay type: functional
T4 sequence (P9WHJ3 whole entry): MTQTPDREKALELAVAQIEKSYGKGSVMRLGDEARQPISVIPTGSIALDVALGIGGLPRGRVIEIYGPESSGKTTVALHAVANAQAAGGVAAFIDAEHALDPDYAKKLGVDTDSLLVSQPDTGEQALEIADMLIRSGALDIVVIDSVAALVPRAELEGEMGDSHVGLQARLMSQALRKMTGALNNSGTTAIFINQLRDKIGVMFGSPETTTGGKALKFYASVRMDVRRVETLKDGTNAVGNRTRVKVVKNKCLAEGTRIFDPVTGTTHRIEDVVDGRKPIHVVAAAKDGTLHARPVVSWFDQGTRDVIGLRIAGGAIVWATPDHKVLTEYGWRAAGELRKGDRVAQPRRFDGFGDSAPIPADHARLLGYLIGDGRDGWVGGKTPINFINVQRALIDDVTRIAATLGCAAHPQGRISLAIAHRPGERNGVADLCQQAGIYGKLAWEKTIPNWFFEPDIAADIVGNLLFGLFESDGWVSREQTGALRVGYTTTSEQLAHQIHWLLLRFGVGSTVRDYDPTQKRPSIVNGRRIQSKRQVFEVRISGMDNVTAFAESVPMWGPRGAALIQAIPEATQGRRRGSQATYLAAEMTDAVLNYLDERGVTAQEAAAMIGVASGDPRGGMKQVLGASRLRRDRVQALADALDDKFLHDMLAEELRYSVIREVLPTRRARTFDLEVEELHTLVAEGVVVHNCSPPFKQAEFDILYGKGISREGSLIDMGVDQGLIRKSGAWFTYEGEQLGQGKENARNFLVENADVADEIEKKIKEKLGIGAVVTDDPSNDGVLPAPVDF

[2] = molecular target: Epstein-Barr nuclear antigen 1 (Epstein-Barr virus (strain B95-8) (HHV-4) (Human herpesvirus 4), UniProt P03211); assay: inhibition of EBV nuclear antigen 1 DNA binding – biochemical, fluorescence polarization, 1536-well, dose response (AID 2381); design: species or system human gammaherpesvirus 4;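 also: fluorescence polarization of a Cy5 DNA probe bound by EBNA-1 protein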
[3] = molecular target: Lytic switch protein BZLF1 (Epstein-Barr virus (strain B95-8) (HHV-4) (Human herpesvirus 4), UniProt P03206); assay: inhibition of BZLF1 ZTA DNA binding – biochemical, fluorescence polarization, Epstein-Barr virus, 1536-well, counter-screen for EBNA-1 inhibitor project, dose response (AID 2377); design: species or system human gammaherpesvirus 4;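 also: fluorescence polarization of Cy5-labelled ZRE DNA probe bound by purified Zta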
Estrogen receptor beta [4] = molecular target: T5, Estrogen receptor beta (Homo sapiens, UniProt Q92731);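 also: recombinant ER-beta bound to coactivator SRC1 peptide in presence of estradiol agonist; inhibitors block coactivator peptide binding and lower the FRET signal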
Estrogen receptor beta [5] = molecular target: T5, Estrogen receptor beta; assay: blockers of SRC-3 recruitment to ERβ – biochemical, ELISA, streptavidin-HRP readout, orthogonal assay, confirmation (AID 1060)
NADPH oxidase 1 = molecular target: T6, NADPH oxidase 1 (Homo sapiens, UniProt Q9Y5S8); assay type: functional, cell-based;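 also: Cell-based assay with luminescence read-out, IC50 derived from inhibitor dose-response curves; intracellular ROS from endogenous NOX1 in intact HT29 colon cancer cells; potency of inhibitors that lower the ROS luminescence signal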
T6 sequence (Q9Y5S8 whole entry): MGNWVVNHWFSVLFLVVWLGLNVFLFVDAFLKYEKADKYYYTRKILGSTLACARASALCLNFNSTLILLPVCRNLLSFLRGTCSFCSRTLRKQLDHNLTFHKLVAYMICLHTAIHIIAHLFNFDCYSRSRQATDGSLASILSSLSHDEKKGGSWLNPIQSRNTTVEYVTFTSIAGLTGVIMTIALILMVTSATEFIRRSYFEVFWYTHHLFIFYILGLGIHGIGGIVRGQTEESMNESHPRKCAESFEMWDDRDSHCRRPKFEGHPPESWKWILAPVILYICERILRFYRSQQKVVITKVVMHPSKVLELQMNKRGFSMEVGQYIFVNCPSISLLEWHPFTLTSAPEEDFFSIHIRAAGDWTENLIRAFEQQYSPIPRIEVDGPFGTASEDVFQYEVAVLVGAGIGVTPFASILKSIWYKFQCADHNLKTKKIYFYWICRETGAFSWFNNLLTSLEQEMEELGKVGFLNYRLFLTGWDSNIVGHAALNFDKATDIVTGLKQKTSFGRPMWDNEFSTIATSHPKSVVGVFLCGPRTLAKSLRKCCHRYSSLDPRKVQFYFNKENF

[6] = molecular target: T7, Neuropeptide Y receptor type 1 (Homo sapiens, UniProt P25929); assay type: functional;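 also: HEK293 cells with a CNG channel challenged with NPY then isoproterenol; potency as antagonist that reverses NPY suppression of cAMP signal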
T7 sequence (P25929 whole entry): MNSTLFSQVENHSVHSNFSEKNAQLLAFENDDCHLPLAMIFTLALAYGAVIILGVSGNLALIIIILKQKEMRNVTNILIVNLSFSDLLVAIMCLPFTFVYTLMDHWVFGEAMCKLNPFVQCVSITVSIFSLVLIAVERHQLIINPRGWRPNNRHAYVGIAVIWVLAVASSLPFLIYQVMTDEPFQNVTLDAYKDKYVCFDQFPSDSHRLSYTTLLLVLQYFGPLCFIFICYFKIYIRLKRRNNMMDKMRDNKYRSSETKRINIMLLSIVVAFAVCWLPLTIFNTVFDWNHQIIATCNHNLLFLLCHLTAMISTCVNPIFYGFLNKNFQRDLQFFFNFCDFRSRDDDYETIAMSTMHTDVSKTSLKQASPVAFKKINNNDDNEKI

[7] = molecular target: T8, Neuropeptide Y receptor type 2 (Homo sapiens, UniProt P49146); assay type: functional, cell-based;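 also: HEK293 cells expressing the receptor and a CNG channel; stimulus was NPY near EC95 followed by isoproterenol to raise cAMP; antagonist potency measured as restoring cAMP signal that NPY suppresses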
T8 sequence (P49146 whole entry): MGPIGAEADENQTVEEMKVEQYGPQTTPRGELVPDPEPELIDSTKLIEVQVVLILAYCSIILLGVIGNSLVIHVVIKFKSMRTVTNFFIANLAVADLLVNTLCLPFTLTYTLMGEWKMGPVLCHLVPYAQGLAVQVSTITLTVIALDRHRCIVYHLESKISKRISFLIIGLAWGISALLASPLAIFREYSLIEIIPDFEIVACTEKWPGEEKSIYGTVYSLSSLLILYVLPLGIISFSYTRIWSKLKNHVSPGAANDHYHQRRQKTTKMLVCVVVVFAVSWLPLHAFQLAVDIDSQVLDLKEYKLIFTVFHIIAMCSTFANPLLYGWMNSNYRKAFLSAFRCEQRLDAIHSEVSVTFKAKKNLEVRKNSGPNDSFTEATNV

[8] = decrease of insulin promoter-GFP reporter – imaging, high-content screening, mouse beta cells (AID 1628); assay type: functional; conditions: MIN6
[9] = MIN6 cell viability loss – mouse insulinoma, cytotoxicity control, dose response (AID 2122); assay type: functional;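 also: confirmatory high-throughput counterscreen run to flag cytotoxic compounds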
Nonstructural protein 1 = Nonstructural protein 1 (Influenza A virus, UniProt Q194T2); assay type: functional, Influenza A virus (A/California/07/2009(H1N1))
Sequence of Nonstructural protein 1 (Q194T2 whole entry): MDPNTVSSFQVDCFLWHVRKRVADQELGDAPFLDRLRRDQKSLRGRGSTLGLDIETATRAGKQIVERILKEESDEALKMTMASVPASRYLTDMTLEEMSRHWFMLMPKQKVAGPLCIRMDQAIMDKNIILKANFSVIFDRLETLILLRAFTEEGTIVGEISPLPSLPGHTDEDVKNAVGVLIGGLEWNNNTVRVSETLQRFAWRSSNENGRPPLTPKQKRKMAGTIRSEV

T5 sequence (Q92731 whole entry): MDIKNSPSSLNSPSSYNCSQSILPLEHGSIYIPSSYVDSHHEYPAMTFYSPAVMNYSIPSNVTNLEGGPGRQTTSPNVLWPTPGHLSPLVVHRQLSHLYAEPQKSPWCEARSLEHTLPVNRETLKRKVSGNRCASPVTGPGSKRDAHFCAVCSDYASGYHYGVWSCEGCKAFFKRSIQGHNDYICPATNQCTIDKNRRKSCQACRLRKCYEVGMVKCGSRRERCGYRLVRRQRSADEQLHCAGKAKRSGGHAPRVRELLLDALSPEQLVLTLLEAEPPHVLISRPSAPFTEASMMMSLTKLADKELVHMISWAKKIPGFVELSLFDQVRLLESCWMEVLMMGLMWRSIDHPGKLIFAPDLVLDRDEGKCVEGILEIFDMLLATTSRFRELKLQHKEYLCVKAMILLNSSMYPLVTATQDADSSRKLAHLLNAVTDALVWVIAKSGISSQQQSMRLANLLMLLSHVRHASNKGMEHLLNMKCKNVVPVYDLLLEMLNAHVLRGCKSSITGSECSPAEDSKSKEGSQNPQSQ
Sequence of Epstein-Barr nuclear antigen 1 (P03211 whole entry): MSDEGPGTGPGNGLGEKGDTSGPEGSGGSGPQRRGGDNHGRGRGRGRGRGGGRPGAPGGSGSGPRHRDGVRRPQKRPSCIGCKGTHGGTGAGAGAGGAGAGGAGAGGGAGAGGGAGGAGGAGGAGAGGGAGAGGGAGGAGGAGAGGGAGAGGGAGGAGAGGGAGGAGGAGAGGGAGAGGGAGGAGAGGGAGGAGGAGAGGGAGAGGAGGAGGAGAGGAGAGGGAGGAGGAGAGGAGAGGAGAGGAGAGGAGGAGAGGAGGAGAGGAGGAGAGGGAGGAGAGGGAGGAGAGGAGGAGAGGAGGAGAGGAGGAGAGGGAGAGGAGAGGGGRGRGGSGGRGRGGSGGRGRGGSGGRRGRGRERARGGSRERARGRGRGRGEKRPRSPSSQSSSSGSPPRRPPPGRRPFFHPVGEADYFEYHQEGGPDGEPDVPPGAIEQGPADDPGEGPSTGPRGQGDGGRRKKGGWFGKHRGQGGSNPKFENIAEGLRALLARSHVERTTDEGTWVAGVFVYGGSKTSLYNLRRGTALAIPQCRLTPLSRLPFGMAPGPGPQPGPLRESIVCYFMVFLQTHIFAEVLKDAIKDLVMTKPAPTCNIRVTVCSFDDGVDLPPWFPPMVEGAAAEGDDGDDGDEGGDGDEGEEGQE
Sequence of Lytic switch protein BZLF1 (P03206 whole entry): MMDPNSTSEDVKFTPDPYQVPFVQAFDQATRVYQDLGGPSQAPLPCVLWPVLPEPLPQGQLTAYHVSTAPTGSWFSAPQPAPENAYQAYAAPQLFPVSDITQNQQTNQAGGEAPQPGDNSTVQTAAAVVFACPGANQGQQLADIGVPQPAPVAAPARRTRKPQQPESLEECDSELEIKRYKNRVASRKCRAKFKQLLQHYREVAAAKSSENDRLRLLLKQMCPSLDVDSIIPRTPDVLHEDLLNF
Sequence of Procathepsin L (P07711 whole entry): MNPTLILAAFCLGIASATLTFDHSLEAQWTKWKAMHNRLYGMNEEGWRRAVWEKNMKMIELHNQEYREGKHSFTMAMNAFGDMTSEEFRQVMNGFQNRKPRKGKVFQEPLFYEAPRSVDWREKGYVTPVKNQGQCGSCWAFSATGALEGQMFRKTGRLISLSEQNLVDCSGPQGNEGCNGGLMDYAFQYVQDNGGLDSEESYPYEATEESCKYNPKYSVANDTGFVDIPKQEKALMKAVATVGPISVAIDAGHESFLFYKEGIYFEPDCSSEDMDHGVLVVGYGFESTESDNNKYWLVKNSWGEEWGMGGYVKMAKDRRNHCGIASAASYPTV

SMILES: O=c1cc(-c2ccc(F)cc2)[nH][nH]1
- IC50 (Leucine aminopeptidase): 1.13 µM (active)
- IC50 (Aspartyl aminopeptidase): > 73.5 µM (not active)
- IC50 (Procathepsin L): > 59.6 µM (not active)
- AC50 [1]: 1.79 µM (active)
- EC50 (Protein RecA): 0.548 µM (active)

SMILES: O=C(NC(=S)Nc1ccc(S(=O)(=O)N2CCCCCC2)cc1)c1cccs1
- IC50 [2]: 14.8 µM (not active)
- IC50 [3]: > 111 µM (not active)

SMILES: Cc1ccc(Nc2nnc(SC3CCOC3=O)s2)c(C)c1 (stereo not drawn)
- IC50 (Leucine aminopeptidase): 2.57 µM (active)
- IC50 (Aspartyl aminopeptidase): > 73.5 µM (not active)
- IC50 (Procathepsin L): > 59.6 µM (not active)

SMILES: COCc1cc(O)n2c(-c3ccc(C)cc3)nnc2n1
- IC50 (Estrogen receptor beta [4]): 17.5 µM (active)
- IC50 (Estrogen receptor beta [5]): 1.03 µM (not active)

SMILES: O=C(CCC(=O)Nc1ccc(F)cc1)Nc1ccc(F)cc1
- IC50 (NADPH oxidase 1): > 17 µM (not active)

SMILES: COc1ccc(NC(=O)c2nnc(O)c3ccccc23)cc1S(=O)(=O)N1CCCCC1
- IC50 [6]: 21 µM (not active)
- IC50 [7]: 19.6 µM (not active)

SMILES: O=C(NNC(=O)c1ccc(NC(=O)c2ccccc2)cc1)c1ccc(F)cc1
- IC50 [2]: 6.82 µM (active)
- IC50 [3]: > 111 µM (not active)

SMILES: COc1cc(/C=N/Nc2c(Cl)c(Cl)nc(C(=O)O)c2Cl)cc(OC)c1OC
- IC50 (NADPH oxidase 1): > 17 µM (not active)

SMILES: CN(C)c1ccc(/N=C/c2ccco2)cc1
- IC50 [8]: 3.55 µM (active)
- IC50 [9]: 3.61 µM (active)
- IC50 (Estrogen receptor beta [4]): 18.5 µM (active)
- IC50 (Estrogen receptor beta [5]): 0.048 µM (not active)
- IC50 (Nonstructural protein 1): 16.6 µM (active)
